The subject of assay [1] is E. coli. Briefly: Discrimination of viable and non-viable E. coli in solution with fluorescent probe and two PET quenchers. The note with it: mixed viable/heat killed E. coli, 0.005 mM Oxazine 170 perchlorate, 0.4 mM p-Sulfonic calix[6]arene, 100 mM Sodium ascorbate in PBS, about 5 min. The format is cell-based. On the procedure:
The viable and heat killed E. coli were preparations were prepared as described in Example 1. The heat killed E. coli suspension was then combined with the viable cell suspension and mixed by vortexing. The resulting cell suspension served as the viable and non-viable E. coli solution.
A fluorescent probe-quencher stain was prepared as a solution consisting of 0.005 mM Oxazine 170 perchlorate (Sigma-Aldrich, St. Louis, Mo.), 0.4 mM p-Sulfonic calix[6]arene (TCI America, Portland, Oreg.), 100 mM Sodium ascorbate (Sigma-Aldrich, St. Louis, Mo.) in PBS.
The viable and non-viable E. coli suspension was then diluted 1:1000 into the fluorescent probe-quencher solution to stain the cells. After incubation for approximately 5 minutes, a droplet of the stained cell solution was placed onto a microscope slide and imaged on a fluorescent microscope (Carl Zeiss, LLC, Thornwood, N.Y.).
FIGS. 20A and 20B show a combined image of the viable and non-viable stained E. coli captured under phase contrast (FIG. 20A) as well as fluorescent conditions (excitation 575-625 nm, emission 660-710 nm) (FIG. 20B). The viable and non-viable cells were indistinguishable in phase contrast but under fluorescent conditions the viable cells were brightly fluorescent whereas the non viable cells were not.

Assay [2] has as its system E. coli. Briefly: Imaging of viable and heat killed E. coli on a membrane with fluorescent probe and quencher wash. It is filed as cell-based. The conditions noted are these: 0.005 mM Oxazine 170 perchlorate stain, 10 mM quencher wash in PBS. On the procedure:
Viable and non-viable E. coli cell fractions were prepared by picking a colony cultured on a conventional media plate and then transferring the cells into Phosphate Buffered Saline (PBS). The cells then were suspended by vortexing and then were further diluted in PBS to give a turbidity equivalent to a 1.0 McFarland standard. This stock solution served as the live cell fraction. An aliquot of the live cell fraction was transferred to a glass tube that was placed into a boiling water bath for about 15 minutes to heat kill the E. coli. The tube was removed from the bath and allowed to cool to room temperature. This heat killed suspension served as the dead cell fraction.
A fluorescent stain solution was prepared as a 0.005 mM solution of Oxazine 170 perchlorate (Sigma-Aldrich, St. Louis, Mo.) in PBS containing a 1:100,000 dilution of 10% w/v 0.8 μm Sky Blue latex fluorescent particles (Spherotech, Lake Forest, Ill.). A separate quencher wash solution was prepared as a 10 mM Sodium ascorbate (Sigma-Aldrich, St. Louis, Mo.) solution in PBS. […]
The cells then were imaged using a fluorescent microscope (Carl Zeiss, LLC—Thornwood, N.Y.) with an excitation of 575 nm-625 nm and measured emission of 660 nm-710 nm. […]

Structures are written as SMILES.

For `O=S(=O)(O)c1cc2c(O)c(c1)Cc1cc(S(=O)(=O)O)cc(c1O)Cc1cc(S(=O)(=O)O)cc(c1O)Cc1cc(S(=O)(=O)O)cc(c1O)Cc1cc(S(=O)(=O)O)cc(c1O)Cc1cc(S(=O)(=O)O)cc(c1O)C2` [p-Sulfonic calix[6]arene, 4- Sulfocalix [6]arene], in assay [1], the “permeation of non-viable cell membranes and quenching of fluorescence” value is “effective quenching of fluorescence”.
With `O=C1O[C@H]([C@@H](O)CO)C([O-])=C1O.[Na+]` [sodium ascorbate, Sodium Ascorbate], the “permeation of the quencher into heat killed cells and effect on fluorescence” value in assay [2] (heat killed E. coli on 0.2 μm membrane) was “quenching of the fluorescent signal and a loss of fluorescence”. In addition, the “permeation of the quencher into viable cells” value in assay [2] (live E. coli on 0.2 μm membrane) is “excluded from the viable cells”. Further, the “permeation of non-viable cell membranes and quenching of fluorescence” value in assay [1] is “effective quenching of fluorescence”.

(Values after patent publication US20130316394A1, “VIABILITY STAINING METHOD” (priority 2012, published 2013).)
